Measured values taken from patent US20240092741A1, “COMPOSITION FOR PREVENTION OR TREATMENT OF NEUROFIBROMATOSIS TYPE 2 SYNDROME” (PRG S&TECH INC., priority 2021, published 2024).

Test system: SOX2
Test: SOX2 localization by IF and cell fractionation in HEI-193 cells
Format: cell-based, human
Conditions: 2 μM, 24 h, IF and cell fractionation (FIGS. 15C, 15D)
Protocol: Cells were seeded on cover glass, washed with PBS, fixed with 4% paraformaldehyde (PFA) for 30 minutes at room temperature, and then permeabilized with 0.2% Triton X-100 at room temperature for 5 minutes. After treatment with blocking buffer [3% goat serum diluted in PBS] for 1 hour, cells were reacted with the specified antibody in the blocking buffer overnight at 4° C. Finally, the cells were reacted with secondary antibodies conjugated with FITC or rhodamine at 4° C. for 7 hours. The nuclei were stained with DAPI at room temperature for 10 minutes. After the cells were washed 3 times with PBS, the cover glass was mounted with a mounting solution (H-5501, Vector Laboratories, Cambridgeshire, UK) and immunofluorescence signals were detected using a fluorescence microscopy (Zeiss, Jena, Germany).

`CCN(CC)CCOc1ccc(-c2nnn(Cc3ccc(OC)cc3)c2N)cc1` [PRG-N-01, 4-(4-(2-(diethylamino)ethoxy)phenyl)-1-(4-methoxybenzyl)-1H-1,2,3-triazol-5-amino] was tested, and the “localization of nuclear SOX2” value was “moved to the cytosol”.
